Source: US9867794B2, “Regulation of osteopontin” (Pathologica LLC, priority 2007, dated 2018)
Several values for one entry are separate records, joined by “and”; a condition that tells them apart may be missing. Identical values can stand only once.

Legend:
[1] = test system: TNFα; test: Microarray analysis of mononuclear cells, TNFα probe; assay type: cell-based, human
Description: (§1) Blood samples were obtained from HIV infected patients (N=9) with positive viral load and reduced CD4 counts, and non-HIV infected, healthy controls (N=6). Blood was collected into heparin anticoagulant tubes and mononuclear cells were isolated by Percoll gradient centrifugation. The cells from each sample were split into 2: one-half receives MGBG at concentration of 10 μM and the other half received no treatment. All samples were then cultured overnight in RPMI media with 10% fetal bovine serum at 37° C. under non-adherent conditions. The next day cells were collected by centrifugation, washed one time with PBS, and lysed by resuspension in TRIZOL, and total RNA was prepared according to manufacturer's instructions (Invitrogen, Carlsbad, Calif.). […] The RNA was then amplified for microarray analysis using a 2 cycle amplification protocol according to the manufacturer's instructions (Affymetrix, Santa Clara, Calif.). The amplified RNAs were then hybridized to Human Genome U133 plus 2.0 microarrays (Affymetrix) and expression data was obtained using an Affymetrix scanner and GCOS protocols. Microarray data was analyzed with GeneSpring Microarray Suite. Results were normalized using a set of 100 probe sets determined by the manufacturer to have relatively invariant expression across most cell types.

[2] = test system: FCGR1a; test: Microarray analysis of mononuclear cells, FCGR1a; assay type: cell-based, human; settings: for FCGR1a signal +, Average: 10 μM MGBG
Description: as §1

[3] = test system: LILRA1; test: Microarray analysis of mononuclear cells, LILRA1; assay type: cell-based, human; settings: for LILRA1 signal +, Average: 10 μM MGBG
Description: as §1

[4] = test system: IL24; test: Quantitative RT-PCR, unsorted mononuclear cells, IL24; assay type: cell-based, human
Description: (§2) To evaluate the effect of MGBG on gene expression, blood samples were obtained from patients (N=18, 10 HIV-infected and 8 Healthy Controls). Mononuclear cells were isolated via Percoll gradient centrifugation. The cells were split into two tubes, one treated with 10 μM of MGBG and the other non-treated. The cells were then cultured overnight in RPMI media plus 10% fetal bovine serum at 37 C under non-adherent conditions, collected, lysed using Trizol solution, and total RNA prepared according to manufacturer's instructions (Invitrogen, Carlsbad, Calif.).
(§3) Approximately 200 ng of total RNA prepared from each sample was converted to cDNA using the First Strand cDNA Synthesis Kit for RT-PCR [AMV] kit (Roche Applied Diagnostics, Indianapolis, Ind.) according to manufacturer's instructions. Around 5 ng of cDNA sample was then used for PCR performed on a LightCycler (Roche Applied Diagnostics, Indianapolis, Ind.) using the LightCycler FastStart DNA Master SYBR Green I kit. PCR conditions are as follows: 1 cycle of denaturation at 95° C. for 10 minutes, followed by 45 cycles of 95° C. for 10 seconds, 68° C. for 10 seconds, and 72° C. for 16 seconds.
(§4) The sequences of gene-specific primers evaluated are listed below. All samples were also amplified with the human β-actin LightCycler-Primer set (Roche Diagnostics).

[5] = test system: MX2; test: Quantitative RT-PCR, unsorted mononuclear cells, MX2; assay type: cell-based, human
Description: as §2, §3, §4

[6] = test system: LILRA1; test: Quantitative RT-PCR, unsorted mononuclear cells, LILRA1; assay type: cell-based, human
Description: as §2, §3, §4

[7] = test system: osteopontin; test: QRT-PCR in CD14/CD16-separated cell fractions, osteopontin RNA; assay type: cell-based, human; settings: for osteopontin RNA, median change relative to no MGBG: 10 μM MGBG
Description: (§5) The changes induced by MGBG in different blood cell types were determined for osteopontin and adenosine deaminase and 7 other genes. For this experiment, blood samples were obtained from 6 healthy controls (3 men/3 women from 20 to 55 years of age) and mononuclear cells were isolated via Percoll gradient centrifugation. The cells were then incubated for 3 hours in RPMI media plus 10% fetal bovine serum at 37 C. At that point MGBG was added to 10 μM to half of each sample and then the cells were incubated at 37 C for 20 more hours. The cells were then bound to magnetic beads coated with antibodies to human CD16. Bound cells (CD16 expressing) were separated from unbound cells using an AutoMACs according to manufacturer's instructions (Miltenyi, Auburn Calif.). Then CD16+ cells are released from the magnetic beads and both the CD16+ and CD16− cells are combined with magnetic beads coated with antibodies to human CD14. Antibody bound and unbound cells were then separated using the AutoMACs machine. […] Cells that neither express CD16 nor CD14 (the −/− Cells). This is mostly T lymphocytes; 2. Cells that only express CD16. This includes contaminating granulocytes not removed by Percoll centrifugation and CD16+ monocytes with very low CD14 expression; 3. Cells that express both CD16 and CD14. This includes monocytes that are expressing CD16+ and macrophages (which express high levels of both); and 4. Cells that only express CD14. This would include most normal human monocytes. After separation, cells of each fraction are washed with PBS and the number of viable cells determined by trypan blue exclusion. RNA is then prepared from each cell group using TRIZOL, according to manufacturer's instructions.

[8] = test system: adenosine deaminase; test: QRT-PCR in CD14/CD16-separated cell fractions, adenosine deaminase RNA; assay type: cell-based, human; settings: 10 μM MGBG
Description: as §5

[9] = test system: PBMCs; test: Cell viability of PBMC cultures when CCS were collected; assay type: cell-based, human; settings: each MGBG concentration (0.1-100 μM), when the CCS were collected
[10] = test system: CD14+ macrophages; CD16+/CD14− cells; test: Phenotypic analysis of cells targeted by MGBG; assay type: cell-based; settings: increasing concentrations of MGBG
Description: Additionally, cells being targeted by MGBG were investigated. […] To elucidate the effects of MGBG and OPN on cell motility, migration assays were conducted. MGBG at 10 μM inhibited macrophage Osteopontin production from >200 ng/mL to nondetectable levels while simultaneously inhibiting HeLa cell invasion into a Matrigel matrix.

[11] = test system: OPN; test: OPN antibody staining of brains and lymph nodes of SIV-infected animals; assay type: in vivo, Rhesus macaques
Description: These monkeys were then treated with MGBG as described.

[12] = average of control samples (C6-, M6-177)
[13] = 10 μM, individual donor samples
[14] = presence of 10 μM MGBG overnight, individual donor samples
[15] = 10 μM MGBG, all unsorted samples
[16] = 10 μM MGBG overnight, individual samples

## CC(/C=N/NC(=N)N)=N\NC(=N)N [MGBG, 1,1′ [methylethanediylidene]dinitrilodiguanidine]
[1]; HIV infected individuals
  samples less than 2 fold changed, TNFα probe: 6 out of 9
[1]; controls
  samples less than 2 fold changed, TNFα probe: 2 out of 6
[1]; presence of MGBG, all samples
  average change for the TNFα Probe set, up-regulated: 8.7 fold
[2]; average of HIV samples
  FCGR1a signal +, Average: 439
[2]; [12]
  FCGR1a signal +, Average: 608
[2]; [13]
  FCGR1A fold change, ON/MGBG ratio (down-regulation): 9.2 fold and 1.3 fold and 0.3 fold (3×) and 0.9 fold (2×) and 0.1 fold and 4.3 fold and 2.7 fold and 2.5 fold and 2.2 fold and 0.4 fold and 12.3 fold and 1.0 fold
[2]; HIV samples
  samples with FCGR1A down-regulated more than 2 fold: 6 of 9
[2]; [14]
  FCGR1a signal +: 415 and 461 and 59 and 800 and 1561 and 136 and 51 and 612 and 53 and 1362 and 1435 and 264 and 33 and 14 and 347
[3]; average of HIV samples
  LILRA1 signal +, Average: 77
[3]; [12]
  LILRA1 signal +, Average: 133
[3]; [13]
  LILRA1 fold change, ON/MGBG ratio (down-regulation): 6.5 fold and 1.8 fold and 0.3 fold (2×) and 11.6 fold and 3.7 fold and 3.1 fold and 13.8 fold and 2.4 fold and 0.5 fold and 1.1 fold and 2.9 fold and 14.6 fold and 1.3 fold (2×)
[3]; HIV samples
  samples with LILRA1 down-regulated more than 2 fold: 5 of 9
[3]; [14]
  LILRA1 signal +: 40 and 129 and 10 and 65 and 246 and 73 and 42 and 99 and 94 and 212 and 277 and 21 and 1 and 15 and 164
[4]; 10 μM MGBG overnight, untreated vs treated, negative = fold reduction, individual samples
  Fold change IL24 by QRT-PCR: 5.35 fold and 1.20 fold and 1.09 fold and −1.13 fold and 1.12 fold and 11.88 fold and 2.57 fold and 2.55 fold and 2.25 fold and 1.01 fold and −1.17 fold and 1.92 fold and 1.32 fold and 1.79 fold and 2.50 fold and −2.41 fold and −1.48 fold and −1.30 fold
[4]; [15]
  Fold change IL24, AVERAGE: 1.6 fold
  Fold change IL24, MAX: 11.9 fold
  Fold change IL24, MIN: −2.4 fold
[4]; share of samples, 10 μM MGBG
  IL24 % >2 fold Changed: 33%
[4]; unsorted samples
  IL24 regulation by MGBG: did not exhibit a consistent pattern of change
[5]; [16]
  Fold change MX2 by QRT-PCR: 2.03 fold and −1.09 fold and 1.16 fold (2×) and −1.01 fold and 4.35 fold and 1.56 fold and −2.81 fold and 3.07 fold and −1.33 fold and −1.77 fold and −3.27 fold and 1.36 fold and 1.13 fold and −2.11 fold and −2.85 fold and 1.23 fold and 6.06 fold
[5]; 10 μM MGBG, all samples
  MX2 AVERAGE: 1.55 fold
  MX2 MAX: 6.06 fold
  MX2 MIN: −3.27 fold
[6]; [16]
  Fold change LILRA1 by QRT-PCR: −1.91 fold and 1.01 fold and −3.10 fold and 1.31 fold and −2.87 fold and 1.52 fold and −3.97 fold and −2.27 fold and 1.11 fold and 1.34 fold and −4.79 fold and −1.31 fold and 1.28 fold and 13.45 fold
[6]; 10 μM MGBG, all samples
  LILRA1 AVERAGE: 1.71 fold
  LILRA1 MAX: 13.45 fold
  LILRA1 MIN: −4.79 fold
[7]; CD14+ monocyte fraction
  osteopontin RNA, median change relative to no MGBG: 0.21
[7]; CD14+ monocyte fraction, 10 μM MGBG 20 h, healthy controls, p=0.03
  osteopontin RNA median reduction: 4.8 fold
[7]; CD14/16++ cells, not significant
  osteopontin RNA, median change relative to no MGBG: 0.61
[7]; CD16+ cells, not significant
  osteopontin RNA, median change relative to no MGBG: 1.12
[7]; double negative cells, not significant
  osteopontin RNA, median change relative to no MGBG: 0.70
[8]; CD14+ monocytes, p=0.0156
  ADA transcription median change (increase): 10.8 fold
[8]; CD14/CD16++ cells
  ADA transcription median change (increase): 2.8 fold
[8]; Double negative cells and CD16+ cells
  ADA transcription change: did not change significantly
[9]
  cell viability: at least 75%
[10]
  levels of CD16+/CD14− cells: did not affect
  yields of CD14+ macrophages: decreasing yields
[11]; FIG. 10, treated SIV-infected animals
  OPN in brains, antibody staining: complete removal of OPN
[11]; FIG. 11, treated animals B146 and CB18
  OPN staining in lymph nodes: markedly decreased levels of OPN
